In brackets after ≈: the same amount, converted by molar mass. Several values for one entry are separate records, joined by “and”; a condition that tells them apart may be missing. Equal entries are not always repeated. Activity calls are given as the source filed them. The rule behind the calls is not given here.
Legend:
Klebsiella oxytoca = test: Antimicrobial activity against Klebsiella oxytoca by broth dilution method; type: functional
Serratia marcescens = test: Antimicrobial activity against Serratia marcescens by broth dilution method; type: functional
Acinetobacter sp. = test: Antimicrobial activity against Acinetobacter sp. by broth dilution method; type: functional
Burkholderia sp. = test: Antimicrobial activity against Burkholderia sp. by broth dilution method; type: functional
Escherichia coli [1] = test: Antimicrobial activity against Escherichia coli A harboring beta-lactamase CTX-M 15 by broth dilution method; type: functional
Pseudomonas aeruginosa [2] = test: Antimicrobial activity against Pseudomonas aeruginosa 1973E harboring beta-lactamase PSE-1 and class C enzymes by broth dilution method; type: functional
Pseudomonas aeruginosa [3] = test: Antimicrobial activity against Pseudomonas aeruginosa 1937E harboring beta-lactamase PSE-4 and class C enzymes by broth dilution method; type: functional
Pseudomonas aeruginosa [4] = test: Antimicrobial activity against Pseudomonas aeruginosa BA(C1-106) mutant assessed as doubling time; type: functional
Enterobacter cloacae [5] = test: Antimicrobial activity against Enterobacter cloacae S9369 selected after MIC of compound exposure by broth dilution method; type: functional
Pseudomonas aeruginosa [6] = test: Microbicidal activity against Pseudomonas aeruginosa 527 selected after 8 times MIC compound exposure; type: functional
Pseudomonas aeruginosa [7] = test: Microbicidal activity against Pseudomonas aeruginosa (560546)9 M.P. selected after MIC of compound exposure; type: functional
Acinetobacter baumannii [8] = test: Antimicrobial activity against Acinetobacter baumannii HPA 4737 harboring beta-lactamase OXA-26 by broth dilution method; type: functional
Acinetobacter baumannii [9] = test: Antimicrobial activity against Acinetobacter baumannii HPA I-16 harboring beta-lactamase OXA-27 by broth dilution method; type: functional
Pseudomonas aeruginosa [10] = test: Antimicrobial activity against Pseudomonas aeruginosa B4 by broth dilution method; type: functional
Pseudomonas aeruginosa [11] = test: Antimicrobial activity against oprD protein deficient Pseudomonas aeruginosa C2 by broth dilution method; type: functional
Pseudomonas aeruginosa [12] = test: Antimicrobial activity against mexAB-oprM protein and mexCD-oprJ deficient Pseudomonas aeruginosa PAO238 by broth dilution method; type: functional
Pseudomonas aeruginosa [13] = test: Antimicrobial activity against mexAB-oprM protein and mexZ deficient Pseudomonas aeruginosa PAO267 by broth dilution method; type: functional
Pseudomonas aeruginosa [14] = test: Antimicrobial activity against fpvA, fpvB, fptA and pirA gene deficient Pseudomonas aeruginosa 860 by broth dilution method; type: functional
Pseudomonas aeruginosa [15] = test: Antimicrobial activity against Pseudomonas aeruginosa BA(C1-106) selected after 25 ug/ml of compound exposure by broth dilution method; type: functional
Acinetobacter junii [16] = test: Antimicrobial activity against Acinetobacter junii 15218 by broth dilution method; type: functional
Enterobacter cloacae [17] = test: Antimicrobial activity against Enterobacter cloacae S4741B by broth dilution method; type: functional
Escherichia coli [18] = test: Antimicrobial activity against Escherichia coli W3110 by broth dilution method; type: functional
Klebsiella pneumoniae = test: Antimicrobial activity against Klebsiella pneumoniae 1338665 by broth dilution method; type: functional
Pseudomonas aeruginosa [19] = test: Antimicrobial activity against Pseudomonas aeruginosa 527 by broth dilution method; type: functional
Pseudomonas aeruginosa [20] = test: Antimicrobial activity against Pseudomonas aeruginosa 621 by broth dilution method; type: functional
Pseudomonas aeruginosa [21] = test: Antimicrobial activity against Pseudomonas aeruginosa 860 by broth dilution method; type: functional
Acinetobacter baumannii [22] = test: Antimicrobial activity against Acinetobacter baumannii HPA74510 assessed as appearance of colony at 4 times MIC concentration; type: functional, organism-based
Escherichia coli [23] = test: Antimicrobial activity against Escherichia coli W3110 assessed as appearance of colony at 4 times MIC concentration; type: functional, organism-based
Pseudomonas aeruginosa [24] = test: Antimicrobial activity against Pseudomonas aeruginosa 527 assessed as appearance of colony at 4 times MIC concentration; type: functional
Pseudomonas aeruginosa [25] = test: Antimicrobial activity against Pseudomonas aeruginosa 621 assessed as appearance of colony at 4 times MIC concentration; type: functional
Acinetobacter baumannii [26] = test: Antimicrobial activity against Acinetobacter baumannii HPA74510 assessed as number of passages required for MIC to rise above 4 times original MIC; type: functional
Enterobacter cloacae [27] = test: Antimicrobial activity against Enterobacter cloacae S4741B assessed as number of passages required for MIC to rise above 4 times original MIC; type: functional
[28] = test system: Stenotrophomonas maltophilia; test: Antimicrobial activity against Stenotrophomonas maltophilia 1AC736 assessed as number of passages required for MIC to rise above 4 times original MIC; type: functional
Acinetobacter baumannii [29] = test: Antimicrobial activity against Acinetobacter baumannii HPA 327009 harboring beta-lactamase OXA-25 by broth dilution method; type: functional
Pseudomonas aeruginosa [30] = test: microbe, parasite or virus in culture; conditions: PAO1
Description: Antimicrobial activity against Pseudomonas aeruginosa PAO1 by broth dilution method

Enterobacteriaceae = test: Antimicrobial activity against Enterobacteriaceae by broth dilution method; type: functional
[31] = Inhibition of Pseudomonas aeruginosa 143724R beta-lactamase class C
[32] = Inhibition of Escherichia coli Penicillin-binding protein 1B
[33] = Inhibition of Escherichia coli Penicillin-binding protein 2
Enterobacter cloacae [34] = test: Microbicidal activity against Enterobacter cloacae S9369 selected after 8 times MIC compound exposure; type: functional
Pseudomonas aeruginosa [35] = test: Microbicidal activity against Pseudomonas aeruginosa BA selected after 8 times MIC compound exposure; type: functional
Pseudomonas aeruginosa [36] = test: Microbicidal activity against Pseudomonas aeruginosa (560546)9 M.P. selected after 4 times MIC compound exposure; type: functional
Acinetobacter baumannii [37] = test: Antimicrobial activity against Acinetobacter baumannii HPA74510 assessed as log reduction in colony count after 24 hrs; type: functional
Pseudomonas aeruginosa [38] = test: Antimicrobial activity against Pseudomonas aeruginosa 1024 assessed as log reduction in colony count within 6 hrs selected after 4 to 8 times MIC compound exposure; type: functional, organism-based
Pseudomonas aeruginosa [39] = test: Antimicrobial activity against Pseudomonas aeruginosa HPA10586 assessed as log reduction in colony count within 6 hrs selected after 1 to 16 times MIC compound exposure; type: functional, organism-based
[40] = test system: Stenotrophomonas maltophilia; test: Antimicrobial activity against Stenotrophomonas maltophilia 1AC736 assessed as log reduction in colony count within 6 hrs selected after 1 to 16 times MIC compound exposure; type: functional, organism-based
Escherichia coli [41] = test: Antimicrobial activity against Escherichia coli W3110 assessed as appearance of spheroplast at 4 ug/mL after 3 hrs by phase-contrast microscopy; type: functional, organism-based
Escherichia coli [42] = test: Antimicrobial activity against Escherichia coli W3110 assessed as appearance of short filaments at 4 ug/mL after 3 hrs by phase-contrast microscopy; type: functional, organism-based
Acinetobacter junii [43] = test: Antimicrobial activity against Acinetobacter junii 15218 assessed as highest concentration at which colonies reappeared; type: functional
Enterobacter cloacae [44] = test: Antimicrobial activity against Enterobacter cloacae S4741B assessed as highest concentration at which colonies reappeared; type: functional
Enterobacter cloacae [45] = test: Antimicrobial activity against Enterobacter cloacae S9369 assessed as highest concentration at which colonies reappeared; type: functional
Pseudomonas aeruginosa [46] = test: Antimicrobial activity against Pseudomonas aeruginosa 860 assessed as highest concentration at which colonies reappeared; type: functional
[47] = Inhibition of beta-lactamase TEM-3
[48] = Inhibition of beta-lactamase SHV-2
[49] = Inhibition of beta-lactamase SHV-4
[50] = Inhibition of beta-lactamase KPC-2
Beta-lactamase = Beta-lactamase (Citrobacter freundii, UniProt P05193); test: Inhibition of Citrobacter freundii AmpC
[51] = Inhibition of Pseudomonas aeruginosa 18S/H beta-lactamase class C

Chain of Beta-lactamase (P05193 whole entry): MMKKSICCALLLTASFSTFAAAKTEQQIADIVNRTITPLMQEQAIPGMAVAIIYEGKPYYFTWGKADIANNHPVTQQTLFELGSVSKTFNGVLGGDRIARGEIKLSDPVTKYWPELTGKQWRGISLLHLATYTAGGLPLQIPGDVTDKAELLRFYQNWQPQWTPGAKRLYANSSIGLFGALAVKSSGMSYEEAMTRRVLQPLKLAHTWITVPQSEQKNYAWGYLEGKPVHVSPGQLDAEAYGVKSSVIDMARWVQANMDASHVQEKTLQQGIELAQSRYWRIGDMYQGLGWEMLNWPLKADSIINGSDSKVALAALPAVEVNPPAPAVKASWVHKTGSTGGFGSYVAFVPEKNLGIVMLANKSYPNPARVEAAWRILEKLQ

## C[C@@H](O)[C@H]1C(=O)N2C(C(=O)O)=C(S[C@@H]3CN[C@H](C(=O)N(C)C)C3)[C@H](C)[C@H]12 [MEROPENEM]
Klebsiella oxytoca
  MIC50: ≤ 0.06 µg/mL
  MIC90: 1 µg/mL (≈ 2.61 µM)
Serratia marcescens
  MIC50: 0.125 µg/mL (≈ 0.326 µM)
  MIC90: 4 µg/mL (≈ 10.4 µM)
Acinetobacter sp.
  MIC50: 1 µg/mL (≈ 2.61 µM)
  MIC90: > 32 µg/mL
Burkholderia sp.
  MIC50: 2 µg/mL (≈ 5.22 µM)
  MIC90: 4 µg/mL (≈ 10.4 µM)
Escherichia coli [1]
  MIC: 0.125 µg/mL (≈ 0.326 µM)
Pseudomonas aeruginosa [2]
  MIC: 4 µg/mL (≈ 10.4 µM)
Pseudomonas aeruginosa [3]
  MIC: 1 µg/mL (≈ 2.61 µM)
Pseudomonas aeruginosa [4]
  Time: 3.8 h
Enterobacter cloacae [5]
  MBC: 2 µg/mL
Pseudomonas aeruginosa [6]
  MBC: 32 µg/mL (≈ 83.4 µM)
Pseudomonas aeruginosa [7]
  MBC: 2 µg/mL
Acinetobacter baumannii [8]
  MIC: > 32 µg/mL
Acinetobacter baumannii [9]
  MIC: > 32 µg/mL
Pseudomonas aeruginosa [10]
  MIC: ≤ 0.06 µg/mL
Pseudomonas aeruginosa [11]
  MIC: 1 µg/mL (≈ 2.61 µM)
Pseudomonas aeruginosa [12]
  MIC: 0.5 µg/mL (≈ 1.3 µM)
Pseudomonas aeruginosa [13]
  MIC: 0.125 µg/mL (≈ 0.326 µM)
Pseudomonas aeruginosa [14]
  MIC: 1 µg/mL (≈ 2.61 µM)
Pseudomonas aeruginosa [15]
  MIC: 1 µg/mL (≈ 2.61 µM)
Acinetobacter junii [16]
  MIC: 0.25 µg/mL (≈ 0.652 µM)
Enterobacter cloacae [17]
  MIC: 1 µg/mL (≈ 2.61 µM)
Escherichia coli [18]
  MIC: 0.25 µg/mL (≈ 0.652 µM)
Klebsiella pneumoniae
  MIC: 4 µg/mL (≈ 10.4 µM)
Pseudomonas aeruginosa [19]
  MIC: 2 µg/mL (≈ 5.22 µM)
Pseudomonas aeruginosa [20]
  MIC: 0.125 µg/mL (≈ 0.326 µM)
Pseudomonas aeruginosa [21]
  MIC: 4 µg/mL (≈ 10.4 µM)
Acinetobacter baumannii [22]
  Activity: inactive
Escherichia coli [23]
  Activity: Active
Pseudomonas aeruginosa [24]
  Activity: inactive
Pseudomonas aeruginosa [25]
  Activity: 1 frequency
Acinetobacter baumannii [26]
  Activity: inactive
Enterobacter cloacae [27]
  Activity: 7 passages
[28]
  Activity: inactive
Acinetobacter baumannii [29]
  MIC: > 32 µg/mL
Pseudomonas aeruginosa [30]
  MIC: 1 µg/mL (≈ 2.61 µM)

## CC1(C)[C@H](NC(=O)/C(=N\OCc2cc(=O)c(O)cn2O)c2csc(N)n2)C(=O)N1OS(=O)(=O)O (stereo in doubt)
Klebsiella oxytoca
  MIC50: 0.125 µg/mL (≈ 0.241 µM)
  MIC90: 4 µg/mL (≈ 7.71 µM)
Serratia marcescens
  MIC50: 2 µg/mL (≈ 3.86 µM)
  MIC90: 4 µg/mL (≈ 7.71 µM)
Acinetobacter sp.
  MIC50: 0.5 µg/mL (≈ 0.964 µM)
  MIC90: 4 µg/mL (≈ 7.71 µM)
Burkholderia sp.
  MIC: ≤ 0.06 µg/mL
  MIC50: ≤ 0.06 µg/mL
  MIC90: 0.125 µg/mL (≈ 0.241 µM)
Enterobacteriaceae
  MIC50: 2 µg/mL (≈ 3.86 µM)
Escherichia coli [1]
  MIC: 0.125 µg/mL (≈ 0.241 µM)
Pseudomonas aeruginosa [2]
  MIC: 4 µg/mL (≈ 7.71 µM)
Pseudomonas aeruginosa [3]
  MIC: 2 µg/mL (≈ 3.86 µM)
[31]
  IC50: 27 µM
[32]
  IC50: 1.9 µM
[33]
  IC50: 30 µM
Acinetobacter baumannii [8]
  MIC: 8 µg/mL (≈ 15.4 µM)
Acinetobacter baumannii [9]
  MIC: 0.5 µg/mL (≈ 0.964 µM)
Pseudomonas aeruginosa [10]
  MIC: 0.5 µg/mL (≈ 0.964 µM)
Pseudomonas aeruginosa [11]
  MIC: 0.25 µg/mL (≈ 0.482 µM)
Pseudomonas aeruginosa [12]
  MIC: 0.125 µg/mL (≈ 0.241 µM)
Pseudomonas aeruginosa [13]
  MIC: ≤ 0.06 µg/mL
Pseudomonas aeruginosa [14]
  MIC: 1 µg/mL (≈ 1.93 µM)
Pseudomonas aeruginosa [15]
  MIC: 16 µg/mL (≈ 30.9 µM)
Enterobacter cloacae [34]
  MBC: 8 µg/mL (≈ 15.4 µM)
Pseudomonas aeruginosa [35]
  MBC: 4 µg/mL (≈ 7.71 µM)
Pseudomonas aeruginosa [36]
  MBC: 4 µg/mL (≈ 7.71 µM)
Acinetobacter baumannii [37]
  FC: 3
Pseudomonas aeruginosa [38]
  Activity: Active
Pseudomonas aeruginosa [39]
  Activity: Active
[40]
  Activity: Active
Escherichia coli [41]
  Activity: Active
Escherichia coli [42]
  Activity: Active
Acinetobacter junii [43]
  Activity: 1 mg/L
Enterobacter cloacae [44]
  Activity: 16 mg/L
Enterobacter cloacae [45]
  Activity: 8 mg/L
Pseudomonas aeruginosa [46]
  Activity: 32 mg/L
Acinetobacter baumannii [22]
  Activity: Active
Escherichia coli [23]
  Activity: Active
Pseudomonas aeruginosa [25]
  Activity: 2.8 frequency and 2.5 frequency
Acinetobacter baumannii [26]
  Activity: 6 passages
Enterobacter cloacae [27]
  Activity: 9 passages
[28]
  Activity: 4 passages
[47]
  IC50: 4.6 µM
[48]
  IC50: 3.4 µM
[49]
  IC50: 4.3 µM
[50]
  IC50: > 2500 µM
Beta-lactamase
  IC50: 2.7 µM
[51]
  IC50: 28 µM
Acinetobacter baumannii [29]
  MIC: 4 µg/mL (≈ 7.71 µM)
Pseudomonas aeruginosa [30]
  MIC: 2 µg/mL (≈ 3.86 µM)

From ChEMBL document CHEMBL1255477, “In vitro properties of BAL30072, a novel siderophore sulfactam with activity against multiresistant gram-negative bacilli” (Antimicrob Agents Chemother, 2010)
